Assay results taken from patent US20190183939A1, “CELL THERAPY USING MIDBRAIN-TYPE NEURAL STEM CELLS TREATED WITH VITAMIN C” (INDUSTRY-UNIVERSITY COOPERATION FOUNDATION HANYANG …, priority 2017, published 2019).

Legend:
[1] = test system: Nurr1 and TH promoters; assay: DIP-qPCR and ChIP-qPCR on Nurr1 and TH promoters; format: cell-based, rat; details: Quercetin 10 μM, 3 hours prior to VC treatment
Source text: (§1) Foxa2 and Nurr1 binding sites were identified using the Jaspar database (http://jaspar.genereg.net/) using an 80% score threshold. Predicted Foxa2 and Nurr1 binding sites were coupled with phylogenetic footprinting to eliminate spurious predictions with specified position weight matrix (PWM) settings, as described in the following reference. [Sandelin, A., and Wasserman, W. W. (2004). Constrained binding site diversity within families of transcription factors enhances pattern discovery bioinformatics. Journal of molecular biology 338, 207-215] (Table 2). ChIP and DIP assays were carried out as described in the following reference. [Prolonged membrane depolarization enhances midbrain dopamine neuron differentiation via epigenetic histone modifications. Stem Cells 29, 1861-1873]. Briefly, chromatin or genomic DNA was sheared to an average of 200-500 bp in length using a sonication Bioruptor (BMS, Seoul, Korea) and immunoprecipitated using the antibodies listed in Table 1. Immunoprecipitated DNA fragments were collected using magnetic beads (Invitrogen), purified, and subjected to real-time PCR using the primers listed in Table 3. The comparative cycle threshold method was used to quantify the results. Data were normalized to the input DNA.

[2] = test system: Foxa2 and Lmx1a promoters; assay: DIP-qPCR and ChIP-qPCR on Foxa2 and Lmx1a promoters; format: cell-based, rat; details: Quercetin 10 μM, 3 hours prior to VC treatment
Source text: as §1

In the case of `O=c1c(O)c(-c2ccc(O)c(O)c2)oc2cc(O)cc(O)c12` [quercetin], the “effect on VC-induced epigenetic changes on Nurr1 and Th promoter” value [1] is reported as “abolished” and the “effect on VC-mediated changes to 5mC/5hmC and H3K27m3/H3K9m3 on Foxa2 and Lmx1a genes” value [2] is reported as “abolished”.
